Experimental data taken from ChEMBL document CHEMBL1129652, “Substituted 1,2-dihydrophthalazines: potent, selective, and noncompetitive inhibitors of the AMPA receptor” (J Med Chem, 1996).

molecular target: Glutamate receptor ionotropic, AMPA (Rattus norvegicus) (UniProt P19491+P19492+P19493+P19490); test: Compound at 10 uM of kainic acid; format: functional

inhibition | Compound
13% | CNC(=O)N1N=C(c2ccc(N)cc2)c2cc3c(cc2C1C)OCO3 (stereo not drawn)

molecular target: Glutamate receptor ionotropic, AMPA (Rattus norvegicus, UniProt P19490+P19491+P19492+P19493)
Description: Inhibitory activity against AMPA receptor currents in rat cortical cells stimulated with 50 uM kainic acid

IC50 | Compound
7.2 µM | CCNC(=O)N1N=C(c2ccc(N)cc2)c2cc3c(cc2C1C)OCO3 (stereo not drawn)
5.4 µM | CC1c2cc3c(cc2C(c2ccc(N)cc2)=NN1C(=O)NC(C)(C)C)OCO3 (stereo not drawn)
2.8 µM | CCCNC(=O)N1N=C(c2ccc(N)cc2)c2cc3c(cc2C1C)OCO3 (stereo not drawn)
1.8 µM | CCCCNC(=O)N1N=C(c2ccc(N)cc2)c2cc3c(cc2C1C)OCO3 (stereo not drawn)
23 µM | CNC(=O)N1N=C(c2ccc(N)cc2)c2cc3c(cc2C1C)OCO3 (stereo not drawn)

Compound | IC50
CC1=NN=C(c2ccc(N)cc2)c2cc3c(cc2C1)OCO3 [GYKI-52466] | 10 µM
CNC(=O)N1N=C(c2ccc(N)cc2)c2cc3c(cc2CC1C)OCO3 (stereo not drawn) [GYKI-53655] | 1 µM
